# Literature values, collected in patent publication US20220031715A1, “COMPOSITIONS AND METHODS FOR ENHANCING WOUND HEALING” (priority 2018, published 2022).
# Assays:
# [1] = system: NR1I2/PAR, NR1i2/PXR, ESR1, NFE2L2/HEBP1, NR1 L3/CAR, and TSHR; details: at least six receptors
# [2] = system: mammals
smiles,measurement,setting,value
"O=P(Oc1ccccc1)(Oc1ccccc1)Oc1ccccc1 [TPP, triphenyl phosphate]",activation of hormone receptors,[1],activates
same,toxicity,[2],very low toxicity
